“And” between values parts separate entries of the source, which are not always exact repeats. Equal values may be shown once. Read-outs that look alike come from different tables or passages of the source.
Tests used:
[1] = target: human cannabinoid CB1 receptor (Homo sapiens, UniProt P21554); assay: cell-based; type: cell-based; conditions: for CB2/CB1: ratio of the IC50 values CB2/CB1, plate-based assay
[2] = target: human cannabinoid CB2 receptor (Homo sapiens, UniProt P34972); assay: cell-based; conditions: for inhibition of internalization (CB2): 2 nM [3H]-CP55,940, CHO-CB2
Chain of human cannabinoid CB2 receptor (P34972 whole entry): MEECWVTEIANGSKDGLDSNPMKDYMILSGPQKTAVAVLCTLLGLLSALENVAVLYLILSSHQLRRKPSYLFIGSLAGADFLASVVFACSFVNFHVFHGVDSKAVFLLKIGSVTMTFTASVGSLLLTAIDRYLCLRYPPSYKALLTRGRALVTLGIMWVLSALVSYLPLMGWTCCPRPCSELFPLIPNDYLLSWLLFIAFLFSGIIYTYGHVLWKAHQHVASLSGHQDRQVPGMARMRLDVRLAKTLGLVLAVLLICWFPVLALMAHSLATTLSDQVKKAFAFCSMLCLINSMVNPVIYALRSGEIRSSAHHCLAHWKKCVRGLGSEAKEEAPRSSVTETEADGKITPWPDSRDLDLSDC

CB2 receptor = conditions: ref Tam et al [25]; cited from earlier work

Chain of human cannabinoid CB1 receptor (P21554 whole entry): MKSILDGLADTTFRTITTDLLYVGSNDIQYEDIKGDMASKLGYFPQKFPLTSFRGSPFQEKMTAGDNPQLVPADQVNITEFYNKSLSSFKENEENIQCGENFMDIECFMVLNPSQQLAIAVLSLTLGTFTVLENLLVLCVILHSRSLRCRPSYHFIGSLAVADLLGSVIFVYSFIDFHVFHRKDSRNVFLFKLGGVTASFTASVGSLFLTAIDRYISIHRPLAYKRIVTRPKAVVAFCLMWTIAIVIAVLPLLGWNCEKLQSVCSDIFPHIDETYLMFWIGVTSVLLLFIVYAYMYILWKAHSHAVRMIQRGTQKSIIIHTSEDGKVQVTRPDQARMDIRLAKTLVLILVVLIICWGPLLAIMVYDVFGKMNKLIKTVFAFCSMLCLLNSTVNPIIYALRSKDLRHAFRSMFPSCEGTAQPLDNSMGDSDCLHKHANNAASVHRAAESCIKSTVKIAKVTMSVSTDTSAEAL

Structure (SMILES)	inhibition of internalization (CB1) [1] [%]	CB2/CB1 [1]	inhibition of internalization (CB2) [2] [%]	IC50 ([1]; read-out: CB1 (IC50 ±SD)) [nM]	also measured
CCCCCn1cc(C(=O)C23CC4CC(CC(C4)C2)C3)c2ccccc21 [AB001, 3-[(adamantan-1-yl)carbonyl]-1-pentylindole]	32.6	58	30.3		IC50 [1]: 29.5 ± 2.23 nM
Cc1c(C(=O)NN2CCCCC2)nn(-c2ccc(Cl)cc2Cl)c1-c1ccc(I)cc1 [AM251]			60.5		
Cc1c(C(=O)NN2CCOCC2)nn(-c2ccc(Cl)cc2Cl)c1-c1ccc(I)cc1 [AM281]			44.2	9.91 ± 0.99	
COc1ccc(C(=O)c2c(C)n(CCN3CCOCC3)c3cc(I)ccc23)cc1 [AM630]			51.4		
Cc1c(C(=O)NN2CCS(=O)(=O)CC2)nn(-c2ccc(Cl)cc2Cl)c1-c1ccc(C#CCCC#N)cc1 [AM6545]	43.7	309	50.7	4.2 ± 0.24	
C[C@@]12CC[C@@H]3[C@@](CC[C@H]4[C@@]3(C)CCC[C@@]4(C)C(=O)O)(CC1=O)C2 [Isosteviol]		0.02	56.8		IC50 [1]: 37.5 ± 6.9 nM; inhibition of internalization (CB1) ([1]; 10 nM [3H]-Win 55,212-2, CHO-CB1): 71.1%; IC50 [2]: 0.9 nM and 0.89 nM; selectivity for CB2 (over CB1) ([2]; plate-based assay): ~ 40 times
CC(C)[C@H](N=C(NS(=O)(=O)c1ccc(Cl)cc1)N1C[C@H](c2ccccc2)C(c2ccc(Cl)cc2)=N1)C(N)=O [JD5037-030]	64.4	810	52.1	0.2 ± 0.05	binding affinity for CB2 (CB2 receptor): 245 nM
Cc1c(C(=O)NN2CCCCC2)nn(-c2ccc(Cl)cc2Cl)c1-c1ccc(Cl)cc1 [Rimonabant]			37.7		
CCCCCn1cc(C(=O)C2C(C)(C)C2(C)C)c2ccccc21 [UR144]	29.6	3	38.1	27.2 ± 6.6	selectivity for CB1 (over CB2) ([1]; plate-based assay): did not observe any selectivity

Reference: publication PMC3677530 (Analytical biochemistry, 2013)
